The source of these data is ChEMBL document CHEMBL1147886, “Synthesis and pharmacological evaluation of novel conformationally constrained homologues of glutamic acid” (Eur J Med Chem, 2007).

Holding throughout (assay type): cell membranes
The target in one test is Glutamate NMDA receptor. The test is described as follows: Displacement of [3H]CGP-39653 from NMDA receptor in rat cortical membrane. A general note: Loss of bound radioactivity is the signal in a displacement assay; it reports binding, not function.
Test [1] is described as follows: Displacement of [3H]AMPA from AMPA receptor in rat cortical membrane.
Test [2] in a line: Displacement of [3H]KA from KA receptor in rat cortical membrane.

For `N[C@]1(C(=O)O)C[C@H]1[C@H]1CC(C(=O)O)=NO1` (racemic), the Ki (usually the dissociation constant of the complex between target and ligand, obtained from inhibition or displacement) on Glutamate NMDA receptor is more than 100 µM. Also, the IC50 in test [1] and in test [2] was more than 100 µM in each case.

On Glutamate NMDA receptor, `N[C@]1(C(=O)O)C[C@H]1[C@@H]1CC(C(=O)O)=NO1` (racemic) came in with a Ki of 34 µM. Moreover, the IC50 in test [1] and in test [2] was more than 100 µM throughout.

`O=C(O)[C@H]1C[C@@]2(CN1)CC(O)=NO2` returned a Ki on Glutamate NMDA receptor of more than 100 µM. The IC50 in test [1] and in test [2] was more than 100 µM in each case.

Turning to `N[C@H](C[C@H]1CC(C(=O)O)=NO1)C(=O)O` (racemic), the IC50 in test [1] and in test [2] was more than 100 µM in each case.

Compound `O=C(O)C1=NO[C@@]2(CN[C@H](C(=O)O)C2)C1` showed a Ki at Glutamate NMDA receptor of more than 100 µM. The IC50 in test [1] and in test [2] was more than 100 µM in each case.

As to `O=C(O)C1=NO[C@]2(CN[C@@H](C(=O)O)C2)C1`, the Ki at Glutamate NMDA receptor was more than 100 µM. The IC50 in test [1] and in test [2] was more than 100 µM in each case.

Regarding `N[C@]1(C(=O)O)C[C@H]1[C@H]1CC(O)=NO1` (racemic), the Ki at Glutamate NMDA receptor was more than 100 µM. The IC50 in test [1] and in test [2] was more than 100 µM in each case.

With `N[C@H](C[C@@H]1CC(C(=O)O)=NO1)C(=O)O` (racemic), the IC50 in test [1] and in test [2] was more than 100 µM throughout.

With `O=C(O)C1=NO[C@]2(CN[C@H](C(=O)O)C2)C1`, the Ki at Glutamate NMDA receptor is more than 100 µM. In addition, the IC50 in test [1] and in test [2] was more than 100 µM each time.

For `O=C(O)[C@H]1C[C@]2(CN1)CC(O)=NO2`, the Ki on Glutamate NMDA receptor was more than 100 µM. The IC50 in test [1] and in test [2] was more than 100 µM throughout.

For the compound `N[C@@H](CCCP(=O)(O)O)C(=O)O`, the IC50 in test [1] and in test [2] was more than 100 µM each time.

For the compound `N[C@H](CCCP(=O)(O)O)C(=O)O`, the IC50 in test [1] and in test [2] was more than 100 µM in each case.

On Glutamate NMDA receptor, `O=C(O)[C@@H]1C[C@]2(CN1)CC(O)=NO2` gave a Ki of more than 100 µM. For the same compound, the IC50 in test [1] and in test [2] was more than 100 µM throughout.

`N[C@]1(C(=O)O)C[C@H]1[C@@H]1CC(O)=NO1` (racemic) had a Ki at Glutamate NMDA receptor of 13 µM. For the same compound, the IC50 in test [1] and in test [2] was more than 100 µM throughout.

On to `O=C(O)[C@@H]1C[C@@]2(CN1)CC(O)=NO2`, for which the Ki at Glutamate NMDA receptor was more than 100 µM. In addition, the IC50 in test [1] and in test [2] was more than 100 µM throughout.

Consider `O=C(O)C1=NO[C@@]2(CN[C@@H](C(=O)O)C2)C1`, for which the Ki on Glutamate NMDA receptor is more than 100 µM. In addition, the IC50 in test [1] and in test [2] was more than 100 µM each time.
